What was measured:
[1] = system: dog; details: Subchronic oral toxicity in nonrodent, beagle, Capsule, dose end: 5 month
[2] = system: rat; details: Combined chronic toxicity/carcinogenicity, other, Oral, Feed, dose end: 105 week
[3] = system: mouse; details: Carcinogenicity, b6c3f1, Oral, Feed, dose end: 104 week
[4] = system: mouse; details: Combined chronic toxicity/carcinogenicity, b6c3f1, Oral, Feed, dose end: 2 year
[5] = system: mouse; details: Prenatal developmental toxicity study, cd1, Oral, Gavage/Intubation, dose end: 15 GD
[6] = system: rabbit; details: Prenatal developmental toxicity study, new zealand white, Oral, Gavage/Intubation, dose end: 19 GD
[7] = system: rat; details: Prenatal developmental toxicity study, sprague dawley, Oral, Gavage/Intubation, dose end: 15 GD
[8] = system: rabbit; details: Prenatal developmental toxicity study, new zealand white, Oral, Gavage/Intubation, dose end: 19 GD; remark: listed apart in the source
[9] = system: mouse; details: Combined chronic toxicity/carcinogenicity, cd1, Oral, Feed, dose end: 24 month
[10] = system: rat; details: Multigenerational reproductive toxicity study, other, Oral, Feed, dose end: 2 generation
[11] = group: cholinesterase, cholinesterase / cholinesterase / cholinesterase / plasma cholinesterase (che)
[12] = group: cholinesterase, cholinesterase / cholinesterase / cholinesterase / plasma cholinesterase (che) + cholinesterase / cholinesterase / cholinesterase / brain …
[13] = group: systemic, systemic / in life observation / clinical signs / soft stools
[14] = group: cholinesterase, cholinesterase / cholinesterase / cholinesterase / brain cholinesterase (che) + cholinesterase / cholinesterase / cholinesterase / …
[15] = group: systemic, systemic / hematology / erythrocyte (rbc) count differential / erythrocyte (rbc) + systemic / hematology / hematocrit (hct) / hematocrit (…
[16] = group: cholinesterase, cholinesterase / cholinesterase / cholinesterase / erythrocyte cholinesterase (che) + cholinesterase / cholinesterase / cholinesterase / …
[17] = group: systemic, systemic / organ weight / lung / absolute
[18] = group: systemic, systemic / in life observation / body weight / body weight gain + systemic / pathology microscopic / kidney / regeneration
[19] = group: developmental, developmental / developmental malformation / bone / exencephaly + developmental / developmental malformation / bone / fused + developmental…
[20] = group: maternal, reproductive / reproductive performance / postimplantation loss / postimplantation loss + systemic / in life observation / body weight / …
[21] = group: developmental, developmental / developmental malformation / bone / [other] + developmental / developmental malformation / bone / absent + developmental / …
[22] = group: developmental, developmental / developmental malformation / general / [other]
[23] = group: maternal, systemic / in life observation / body weight / body weight + systemic / in life observation / body weight / body weight gain + systemic / in…
[24] = group: developmental, systemic / in life observation / body weight / fetal weight
[25] = group: maternal, reproductive / reproductive performance / implantations / implantations + systemic / in life observation / body weight / body weight gain + …
[26] = group: cholinesterase, cholinesterase / cholinesterase / cholinesterase / brain cholinesterase (che)
[27] = group: cholinesterase, cholinesterase / cholinesterase / cholinesterase / brain cholinesterase (che) + cholinesterase / cholinesterase / cholinesterase / plasma …
[28] = group: systemic, systemic / pathology microscopic / liver / adenoma + systemic / pathology gross / liver / mass
[29] = group: systemic, systemic / pathology microscopic / liver / adenoma + systemic / pathology microscopic / liver / adenoma/carcinoma combined + systemic / …
[30] = group: offspring, systemic / pathology microscopic / ureter / hyperplasia
[31] = group: parental, systemic / in life observation / clinical signs / motor activity

**Q.** Which LEL [1, 11] does the source give for `CCCSP(=O)(OCC)SCCC` [Ethoprop] here?
**A.** The LEL was 0.025 mg/kg/day.

**Q.** And the LOAEL [1, 11]?
**A.** Its LOAEL is 0.025 mg/kg/day.

**Q.** What about the NEL [1, 12] of the same compound?
**A.** The NEL was 0.01 mg/kg/day.

**Q.** And the NOAEL [1, 12]?
**A.** The NOAEL was 0.01 mg/kg/day.

**Q.** What about the LEL [1, 13] of the same compound?
**A.** Its LEL is 0.025 mg/kg/day.

**Q.** And the LOAEL [1, 13]?
**A.** Its LOAEL is greater than 1 mg/kg/day.

**Q.** What about the NEL [1, 13] of the same compound?
**A.** The NEL was 0.01 mg/kg/day.

**Q.** What about the NOAEL [1, 13] of the same compound?
**A.** Its NOAEL is no less than 1 mg/kg/day.

**Q.** And the LEL [2, 14]?
**A.** Its LEL is 3 mg/kg/day.

**Q.** What about the LOAEL [2, 14] of the same compound?
**A.** The LOAEL was 3 mg/kg/day.

**Q.** And the NEL [2, 14]?
**A.** Its NEL is 0.05 mg/kg/day.

**Q.** What about the NOAEL [2, 14] of the same compound?
**A.** Its NOAEL is 0.05 mg/kg/day.

**Q.** And the LEL [2, 15]?
**A.** The LEL was 20 mg/kg/day.

**Q.** What about the LOAEL [2, 15] of the same compound?
**A.** The LOAEL was 20 mg/kg/day.

**Q.** What about the NOAEL [2, 15] of the same compound?
**A.** The NOAEL was 3 mg/kg/day.

**Q.** What about the NEL ([2]; group: systemic, systemic / organ weight / kidney / relative to body weight + systemic / organ weight / thyroid gland / relative to body weight) of the same compound?
**A.** The NEL was 3 mg/kg/day.

**Q.** What about the LEL [3, 16] of the same compound?
**A.** Its LEL is 0.254 mg/kg/day.

**Q.** What about the LOAEL [3, 16] of the same compound?
**A.** The LOAEL was 0.254 mg/kg/day.

**Q.** What about the NEL [3, 16] of the same compound?
**A.** Its NEL is 0.026 mg/kg/day.

**Q.** And the NOAEL [3, 16]?
**A.** Its NOAEL is 0.026 mg/kg/day.

**Q.** And the LOAEL ([3]; group: systemic, systemic / in life observation / body weight / body weight + systemic / in life observation / body weight / body weight gain)?
**A.** The LOAEL was 3.96 mg/kg/day.

**Q.** What about the NOAEL ([3]; group: systemic, systemic / in life observation / body weight / body weight + systemic / in life observation / body weight / body weight gain + systemic / in…) of the same compound?
**A.** The NOAEL was 0.254 mg/kg/day.

**Q.** What about the LEL [3, 17] of the same compound?
**A.** The LEL was 0.032 mg/kg/day.

**Q.** And the NEL [3, 17]?
**A.** Its NEL is less than 0.032 mg/kg/day.

**Q.** And the LEL [4, 16]?
**A.** Its LEL is 0.306 mg/kg/day.

**Q.** What about the LOAEL [4, 16] of the same compound?
**A.** The LOAEL was 0.306 mg/kg/day.

**Q.** And the NEL [4, 16]?
**A.** Its NEL is 0.032 mg/kg/day.

**Q.** What about the NOAEL [4, 16] of the same compound?
**A.** The NOAEL was 0.032 mg/kg/day.

**Q.** And the LOAEL ([4]; group: systemic, systemic / in life observation / body weight / body weight gain)?
**A.** Its LOAEL is 4.44 mg/kg/day.

**Q.** And the NEL [4, 18]?
**A.** Its NEL is 0.032 mg/kg/day.

**Q.** And the NOAEL [4, 18]?
**A.** The NOAEL was 0.306 mg/kg/day.

**Q.** What about the LEL ([4]; group: systemic, systemic / pathology microscopic / kidney / regeneration) of the same compound?
**A.** The LEL was 0.306 mg/kg/day.

**Q.** With `CCOCCOCC` [Ethylene glycol diethyl ether] as the compound, how does the LEL [5, 19] read?
**A.** The LEL was 500 mg/kg/day.

**Q.** What about the LOAEL [5, 19] of the same compound?
**A.** Its LOAEL is greater than 1000 mg/kg/day.

**Q.** What about the NEL [5, 19] of the same compound?
**A.** The NEL was 150 mg/kg/day.

**Q.** And the NOAEL [5, 19]?
**A.** Its NOAEL is no less than 1000 mg/kg/day.

**Q.** And the LEL [5, 20]?
**A.** The LEL was 1000 mg/kg/day.

**Q.** What about the LOAEL [5, 20] of the same compound?
**A.** Its LOAEL is greater than 1000 mg/kg/day.

**Q.** And the NEL [5, 20]?
**A.** Its NEL is 500 mg/kg/day.

**Q.** And the NOAEL [5, 20]?
**A.** The NOAEL was no less than 1000 mg/kg/day.

**Q.** What about the LEL [6, 21] of the same compound?
**A.** Its LEL is 100 mg/kg/day.

**Q.** And the LOAEL [6, 21]?
**A.** The LOAEL was greater than 100 mg/kg/day.

**Q.** What about the NEL [6, 21] of the same compound?
**A.** The NEL was 50 mg/kg/day.

**Q.** And the NOAEL [6, 21]?
**A.** The NOAEL was no less than 100 mg/kg/day.

**Q.** And the LEL [6, 20]?
**A.** Its LEL is 100 mg/kg/day.

**Q.** And the LOAEL [6, 20]?
**A.** The LOAEL was greater than 100 mg/kg/day.

**Q.** What about the NEL [6, 20] of the same compound?
**A.** The NEL was 50 mg/kg/day.

**Q.** What about the NOAEL [6, 20] of the same compound?
**A.** The NOAEL was no less than 100 mg/kg/day.

**Q.** `CN(C)c1ccc(C(=C2C=CC(=[N+](C)C)C=C2)c2ccc(N(C)C)cc2)cc1.[Cl-]` [Gentian Violet] was tested. Which LEL [7, 22] did it give?
**A.** The LEL was 10 mg/kg/day.

**Q.** What about the LOAEL [7, 22] of the same compound?
**A.** The LOAEL was greater than 10 mg/kg/day.

**Q.** What about the NEL [7, 22] of the same compound?
**A.** The NEL was 5 mg/kg/day.

**Q.** And the NOAEL [7, 22]?
**A.** Its NOAEL is no less than 10 mg/kg/day.

**Q.** What about the LOAEL [7, 23] of the same compound?
**A.** The LOAEL was greater than 10 mg/kg/day.

**Q.** What about the NEL [7, 23] of the same compound?
**A.** Its NEL is 2.5 mg/kg/day.

**Q.** What about the NOAEL [7, 23] of the same compound?
**A.** Its NOAEL is no less than 10 mg/kg/day.

**Q.** What about the LEL ([7]; group: maternal, systemic / in life observation / body weight / body weight gain) of the same compound?
**A.** The LEL was 5 mg/kg/day.

**Q.** What about the LEL [8, 24] of the same compound?
**A.** Its LEL is 0.5 mg/kg/day.

**Q.** And the LOAEL [8, 24]?
**A.** Its LOAEL is greater than 2 mg/kg/day.

**Q.** What about the NEL [8, 24] of the same compound?
**A.** The NEL was less than 0.5 mg/kg/day.

**Q.** What about the NOAEL [8, 24] of the same compound?
**A.** The NOAEL was no less than 2 mg/kg/day.

**Q.** What about the LEL [8, 25] of the same compound?
**A.** The LEL was 0.5 mg/kg/day.

**Q.** What about the LOAEL [8, 25] of the same compound?
**A.** The LOAEL was greater than 2 mg/kg/day.

**Q.** What about the NEL [8, 25] of the same compound?
**A.** The NEL was less than 0.5 mg/kg/day.

**Q.** What about the NOAEL [8, 25] of the same compound?
**A.** Its NOAEL is no less than 2 mg/kg/day.

**Q.** `COc1nn(CSP(=S)(OC)OC)c(=O)s1` [Methidathion] was tested. Which LEL [9, 26] did it give?
**A.** The LEL was 1.6 mg/kg/day.

**Q.** And the LOAEL [9, 26]?
**A.** The LOAEL was 7.5 mg/kg/day.

**Q.** And the NEL [9, 27]?
**A.** The NEL was 0.46 mg/kg/day.

**Q.** What about the NOAEL [9, 27] of the same compound?
**A.** Its NOAEL is 1.6 mg/kg/day.

**Q.** What about the LEL [9, 28] of the same compound?
**A.** The LEL was 0.46 mg/kg/day.

**Q.** And the NEL [9, 28]?
**A.** Its NEL is less than 0.46 mg/kg/day.

**Q.** What about the LOAEL [9, 29] of the same compound?
**A.** The LOAEL was 7.5 mg/kg/day.

**Q.** And the NOAEL [9, 29]?
**A.** The NOAEL was 1.6 mg/kg/day.

**Q.** What does the source list for `COc1cc(OC)nc(NC(=O)NS(=O)(=O)Nc2ccccc2C(=O)N(C)C)n1` [Orthosulfamuron]?
**A.** LEL [10, 30]: 765 mg/kg/day; LOAEL [10, 30]: > 765 mg/kg/day; NEL [10, 30]: 205 mg/kg/day; NOAEL [10, 30]: ≥ 765 mg/kg/day; LEL [10, 31]: 635 mg/kg/day; LOAEL [10, 31]: 635 mg/kg/day; NEL [10, 31]: 145 mg/kg/day; NOAEL [10, 31]: 145 mg/kg/day
